“And” between values parts separate entries of the source, which are not always exact repeats. Identical values can stand only once.
Each compound was assayed on P. falciparum 3D7 growth, pLDH absorbance (assay: P. falciparum 3D7 growth inhibition, dose response, strain 3D7 (AID 2305)).

Structure (SMILES)	IC50
O=C(/C=C/c1cccc(Br)c1)NCCCCCN1CCC(c2c[nH]c3ccccc23)CC1	630 nM
O=C(NC1CCC(N2CCC(c3ccccc3C(F)(F)F)CC2)CC1)c1cc2ccccc2[nH]1 (centres undefined)	520 nM
Cc1cccc2[nH]c(-c3cccc(-c4cccc(NC(=O)c5cnc[nH]5)c4)c3)nc12	260 nM
O=C(Nc1ccc(C(F)(F)F)cc1)c1cccc(S(=O)(=O)NCC2CCCN(CC3CCCCC3)C2)c1 (centres undefined)	750 nM
COc1ccc(C(=O)O)cc1OCc1ccccc1	820 nM
CC(=O)c1c(Nc2c(C)cc(C)cc2C)oc(C)cc1=O	480 nM
C=CCn1c(Sc2ccc(C#N)c([N+](=O)[O-])c2)nnc1-c1ccc(OC)cc1	800 nM
CO/N=C(\C)c1ccc2c(c1)CCN(CCC1CCC(NC(=O)c3cccc(-c4noc(C)n4)c3)CC1)CC2 (centres undefined)	240 nM
COCCNCc1cccc(-c2cccc(CN(C(=O)Nc3ccccc3)C3CCN(Cc4ccccc4)CC3)c2)c1	130 nM
CCCCN1Cc2c(n(CC(=O)Nc3ccccc3)c3cc(-c4ccccc4)nn3c2=O)C1=O	810 nM
COc1ccccc1NC(=O)Nc1ccc(-c2ccc(-c3nc4c(C)cccc4[nH]3)s2)cc1	160 nM
COc1cc2c(cc1N1CCN(C)CC1)N(C(=O)Nc1ccc(-c3ccncc3)c(Cl)c1Cl)CC2	610 nM
Cc1csc(NC2=NCCN2)n1	470 nM
CCc1cn(CC(=O)N(CCOc2ccc(-c3ccc(C(F)(F)F)cc3)cc2)CCN(CC)CC)c(SCc2ccc(F)cc2)nc1=O	780 nM
CCOc1cc(CC)ccc1C1CCN(CCCCNC(=O)c2ccc(NC(=O)c3ccc(C#N)cc3)cc2)CC1	500 nM
COc1ccc2c(NN=Cc3cccc(C)n3)ccnc2c1	760 nM
CN(C)CC1c2[nH]c3ccccc3c2CCN1C(=O)Nc1ccc(Cl)c(Cl)c1 (centres undefined)	1210 nM
COc1ccc(CCN2CCC(CN(C)Cc3cnn(-c4ccccc4)c3)CC2)cc1	1160 nM
CN(C)CCNc1cc(-c2ccc3ccccc3c2)nc2ccccc12	350 nM
COc1ccc2nccc(N3C[C@H]4C[C@@H]3CN4CCNCc3ccc4c(n3)NC(=O)CS4)c2n1	970 nM
COc1ccc(CNc2nc(NCc3ccc(C(F)(F)F)cc3)c3cc(OC)c(OC)cc3n2)cc1OC	210 nM
O=C(C=Cc1ccc(Cl)c(Cl)c1)NCCCCCN1CCCC(CCCNC(=O)c2ccc3c(c2)OCO3)C1 (centres undefined)	1220 nM
CCCc1cc(Cc2cnc(N)nc2N)ccc1OCCCCCC(=O)OCC	500 nM
COc1ccc(CNCc2ccccc2)cc1-c1cccc(S(=O)(=O)NCCN2CCCC2)c1	790 nM
O=C(Nc1ccc(Cl)c(Cl)c1)N1CCC(NCc2cccc([N+](=O)[O-])c2)CC1	760 nM

Structure (SMILES)	IC50
CC(C)n1c(C2CCN(CC3CCN(C(=O)/C=C/c4ccc(Cl)c(Cl)c4)CC3)CC2)nc2ccccc21	1030 nM
COc1ccc(CNCc2cccc(-c3csc(-c4nc5ccccc5[nH]4)c3)c2)cc1	650 nM
COc1ccc(C2c3ccccc3-c3nc(N)nc(N)c3C2C)cc1 (centres undefined)	240 nM
CCN(CC)C(=O)C1CCN(C(C(=O)N2CCN(CC(=O)N3CCCC3)CC2)c2cc3ccccc3o2)CC1 (centres undefined)	710 nM
CCN(CC)CCOc1cc2c(cc1Br)-c1cc(Br)c(OCCN(CC)CC)cc1C2=NO	1090 nM
CN1CCN(c2cccc(NC(=O)c3ccc(-c4ccc(C#N)cc4)cc3)c2)CC1	1260 nM
O=C(/C=C/c1cccc(Cl)c1)NC1CCC(CN2CCC(c3c[nH]c4ccccc34)CC2)CC1 (centres undefined)	750 nM and 720 nM
CC1(C)[C@H]2CC[C@@H](CNc3nc(NCCc4cnc[nH]4)nc(NCc4cc(F)ccc4F)n3)[C@@H]1C2	310 nM
O=C(NCCc1cccc(Cl)c1Cl)c1cnc(N2CCN(c3ccncc3)CC2)c(Cl)c1	700 nM
COc1ccc(CNC2Cc3ccccc3C2)cc1-c1ccc(S(=O)(=O)NCc2ccccc2)s1	830 nM
Nc1nc(N)c2cc(CNc3ccc(Cl)c(Cl)c3)ccc2n1	1020 nM
CN(C)c1ccc(-c2ccc(C(=O)NC3CCN(Cc4ccccc4)CC3)s2)cc1	1050 nM
CCCCN(CCCC)CCCN(CCCN(CCCC)CCCC)c1cc(C)nc(Nc2ccc(Cl)cc2)n1	370 nM
c1ccc(C(OCCC2CCN(Cc3cccnc3)CC2)c2ccccc2)cc1	820 nM
O=C(CCN1CCCCC1)Nc1ccc(Nc2nccc(NCC(O)c3ccccc3)n2)cc1 (centres undefined)	720 nM
Cc1cccc2[nH]c(-c3ccc(-c4cccc(CN5CCCC5CN)c4)cc3)nc12 (centres undefined)	910 nM
CCCCCCn1c(Sc2ccc(C#N)c([N+](=O)[O-])c2)nnc1-c1ccccc1	770 nM
O=C(/C=C/c1ccc(Cl)c(Cl)c1)NCCCCCCN1CCN(C(=O)Nc2ccc(F)c(Cl)c2)CC1	940 nM
CC(C)(C)c1ccc(CNC(=O)/C=C/c2ccc(CNC3CCNCC3)cc2)cc1	1090 nM
COc1cc(NC(=O)c2sc(-c3ccc(Cl)cc3)cc2NC(=O)c2ccncc2)ccc1OCCN1CCCC1	30 nM
c1ccc(CN2CCC(NCc3ccccc3-c3cccc(CNC4CCCC4)c3)CC2)cc1	720 nM
COc1cc2nc(NCC3CCCCC3)nc(NCc3ccccc3)c2cc1OC	140 nM
COc1ccc(-c2cc(C(=O)N3CCc4ccccc43)c3ccccc3n2)cc1OC	330 nM
CC(=O)N(Cc1ccccc1-c1ccc(CNCCc2ccccc2)cc1)C1CCN(Cc2ccccc2)CC1	480 nM
O=C(/C=C/c1ccc(CNCCN2CCOCC2)cc1)NCCc1ccccc1	860 nM

Structure (SMILES)	IC50
CC(C)NCc1ccc(-c2ccc(CN3CCCC(c4ccccc4)C3)cc2)c(C(=O)NC2Cc3ccccc3C2)c1 (centres undefined)	990 nM
Cc1cccc2[nH]c(-c3ccc(-c4ccc(CN5CCN(CCO)CC5)cc4)cc3)nc12	600 nM
O=C(NC1CCCCN(Cc2ccc3c(c2)OCCO3)C1)c1cc(-c2ccccc2F)cs1 (centres undefined)	1050 nM
CCCCCCCc1cc(=O)c2ccccc2[nH]1	320 nM
COc1ccc(-c2ccc(NC(=O)c3ccc(F)cc3)cc2)cc1CNC(C)C	760 nM
O=C(/C=C/c1ccc([N+](=O)[O-])cc1)N1CCC(NS(=O)(=O)c2ccc(F)cc2)CC1	820 nM
OC(CNc1ccnc(Nc2cccc(Cl)c2)n1)c1cccc(F)c1 (centres undefined)	970 nM
Cc1[nH]c(C)c(-c2ccc(OCc3cccc(C(F)(F)F)c3)nc2)c(=O)c1Br	40 nM
C[C@@H]1CCC[C@H](C)N1C[C@@H](O)CNS(=O)(=O)c1cccc(C(F)(F)F)c1	690 nM
CCC(C)NS(=O)(=O)c1ccc2nc(Nc3ccc(C)c(Cl)c3)n(C3CCCCC3)c2c1 (centres undefined)	510 nM
Cc1cc(NC(=O)Nc2ccc3sccc3c2)c2ccccc2n1	530 nM
OC[C@H]1CCCN1CC#Cc1cc2c(Nc3ccc(OCc4cccc(F)c4)c(Cl)c3)ncnc2s1	1210 nM
CCCC(C)Nc1nc(C)cc(N[C@@H](CC(C)C)C(=O)NCCc2ccccc2)n1 (some centres undefined)	1360 nM
O=C(NC1CCN(c2ccc(F)cc2[N+](=O)[O-])CC1)c1cccs1	670 nM
Nc1ncc(-c2cccc(F)c2)cc1-c1nc2ccc(F)cc2[nH]1	180 nM
O=C(Nc1ccc(OC2CCN(Cc3ccccc3)C2)c(Cl)c1)c1ccc(F)cc1 (centres undefined)	790 nM
Nc1nc(N)c2c(Oc3cc(Cl)c(Cl)c(Cl)c3)cccc2n1	800 nM
O=C(NC1CCN(Cc2ccccc2)CC1)c1ccc(CNC2CCN(Cc3ccccc3)CC2)cc1	870 nM
CC(CN1CCN(C)CC1)C(=O)Nc1cccc(-c2ccc(-c3nc4ccc(C(F)(F)F)cc4[nH]3)cc2)c1 (centres undefined)	610 nM
Cc1cc(NC(=O)Nc2ccc(C(C)(C)C)cc2)c2ccccc2n1	720 nM
Fc1cccc(Cl)c1-c1nc(NCCC(c2ccccc2)c2ccccc2)no1	550 nM
Cc1c(NC(=O)COc2ccc(Cl)cc2C(=O)c2cc(F)cc(C(F)(F)F)c2)ccc2ncsc12	1020 nM
Cc1ccc(-c2nc3ccccc3o2)cc1NCc1cc(Cc2ccccc2)ccc1O	1030 nM
COCCCNC(=O)C1CCN(C(c2ccc(Cl)cc2)c2ccc(Cl)cc2)CC1	920 nM
CN(C)CCC=C1c2ccccc2Sc2c(O)cc(Cl)cc21	280 nM

Structure (SMILES)	IC50
COc1ccc2nccc(N(C)CC3(O)CCC(NCc4cc5c(cn4)OCCO5)CC3)c2n1 (centres undefined)	680 nM
CCCN(c1ccc(O)c(CN2CCCCC2)c1)c1ccc([N+](=O)[O-])cn1	800 nM
Oc1cc2ccccc2cc1CNC1CCCCC1	590 nM
CS(=O)(=O)c1cccc(-c2cnc(N)c3cc(-c4ccc(F)cc4)ccc23)c1	900 nM
CC(C)(C)CNCC(C)(C)c1nc(-c2ccc(Cl)c(O)c2)c(-c2ccncc2)[nH]1	600 nM
COc1ccc2nccc(NC(=O)C3(O)CCC(NCc4ccc5c(c4)NCCS5)CC3)c2n1 (centres undefined)	600 nM
COc1ccc(C=CC(=O)NC2CCC(CN3CCC(c4c[nH]c5ccccc45)CC3)CC2)cc1OC (centres undefined)	840 nM and 800 nM
CCCc1cn2c3c(cc(C(=O)N[C@@H](Cc4ccccc4)[C@H](O)CNC4CCCCC4)cc13)N(CC)S(=O)(=O)CC2	80 nM
CC(C)N(C)C(=O)n1cnc(S(=O)(=O)C2C[C@@H]3CC[C@H]2C3)n1 (some centres undefined)	60 nM
CN(C)c1ccc(-c2csc(C(=O)NCC3CCN(CC4CCCCC4)C3)c2)cc1 (centres undefined)	1140 nM
CCCCCCCC1CC(CC(=O)Nc2ccnc3ccc(OC)cc23)CN1C(=O)OC(C)(C)C (centres undefined)	710 nM
CC(C)CCN1CCCN(Cc2ccc(C(=O)Nc3ccc(Cl)cc3)cc2)CC1	800 nM
C=C(C)Cn1cc(C2CCN(CCN3CCC(CNC(=O)c4ccc(-c5ccc(C#N)cc5)cc4)CC3)CC2)c2ccccc21	430 nM
N#Cc1ccc(CN2CCC(Oc3ccc(NC(=O)c4ccco4)cc3Cl)CC2)cc1	380 nM
Cc1cccc2[nH]c(-c3cccc(-c4ccc(NC(=O)C5CCN(C)CC5)cc4)c3)nc12	830 nM
CCC(CC(NCCCCNC(=O)c1ccc(NC(=O)c2ccc(Cl)cc2)cc1)c1ccccc1)c1ccccc1OC (centres undefined)	670 nM and 790 nM
Cc1cccc2[nH]c(-c3cccc(-c4cccc(NC(=O)NCc5ccccc5)c4)c3)nc12	520 nM
Nc1c2c(nc3ccc(NC(=O)CCCCCc4ccccc4)cc13)CCCC2	440 nM
CN(C)S(=O)(=O)c1ccc(N2CCN(CCC3(c4cccc(F)c4)CCN(C(=O)C(C)(C)C)CC3)CC2)c2nonc12	700 nM
O=C(Nc1ccc2c(c1)CCNCC2)c1ccc(-c2ccc(Cl)cc2)cc1	810 nM
O=C(CSc1n[nH]c(-c2ccccc2Br)n1)c1c[nH]c2ccccc12	980 nM
O=C(Nc1ccc(-c2cccc(-c3nc4ccccc4[nH]3)c2)cc1)c1cnn2cccnc12	600 nM
C[C@@H](C(=O)N1CCOCC1)N1CC[C@H](NS(=O)(=O)c2ccc3ccnc(N)c3c2)C1=O	1500 nM
CCCCCCn1c(Sc2ccc(C#N)c([N+](=O)[O-])c2)nnc1-c1ccc(OC)cc1	850 nM

From PubChem BioAssay AID2305 (GlaxoSmithKline (GSK), 2010)
